In brackets after ≈: the same amount, converted by molar mass.
Key:
P. aeruginosa LpxC = target: T1, P. aeruginosa LpxC (Pseudomonas aeruginosa, UniProt P47205); test: LpxC Binding Assay (Rapid Fire MS assay); format: biochemical
T1 sequence (P47205 1-303): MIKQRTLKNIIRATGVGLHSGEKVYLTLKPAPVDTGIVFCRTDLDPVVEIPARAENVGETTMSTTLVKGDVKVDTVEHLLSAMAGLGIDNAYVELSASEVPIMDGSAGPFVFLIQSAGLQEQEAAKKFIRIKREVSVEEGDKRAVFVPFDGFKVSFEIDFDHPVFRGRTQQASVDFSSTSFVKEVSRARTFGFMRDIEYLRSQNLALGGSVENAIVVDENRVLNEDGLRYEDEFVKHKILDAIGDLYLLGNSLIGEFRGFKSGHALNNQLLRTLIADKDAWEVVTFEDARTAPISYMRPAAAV
Procedure: (§1) IC50 values against E. coli and P. aeruginosa LpxC are determined using a Rapid Fire MS assay as previously described J. Med. Chem. 2012, 55, 1662-1670.

E. coli LpxC = target: T2, E. coli LpxC (Escherichia coli, UniProt P0A725); test: LpxC Binding Assay (Rapid Fire MS assay); format: biochemical
T2 sequence (P0A725 1-305): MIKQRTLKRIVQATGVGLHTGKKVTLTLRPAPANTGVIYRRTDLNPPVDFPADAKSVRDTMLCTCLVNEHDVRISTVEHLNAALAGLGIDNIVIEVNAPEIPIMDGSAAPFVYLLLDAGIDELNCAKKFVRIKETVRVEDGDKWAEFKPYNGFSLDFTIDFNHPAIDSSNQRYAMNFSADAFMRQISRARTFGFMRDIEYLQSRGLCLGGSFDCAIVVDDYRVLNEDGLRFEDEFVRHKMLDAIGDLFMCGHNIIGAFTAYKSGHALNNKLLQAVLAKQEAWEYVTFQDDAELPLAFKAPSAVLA
Procedure: as §1

P. aeruginosa ATCC27835 = test: Bacterial susceptibility testing, MIC by broth microdilution (CLSI); format: cell-based; details: Pseudomonas aeruginosa, 35° C., 18-24 h, read-out: MIC (μg/mL) P. aeruginosa ATCC27835
Procedure: (§2) Minimal inhibitory concentrations (MIC) were determined by the broth microdilution method in accordance with the Clinical and Laboratory Standards Institute (CLSI) guidelines. In brief, organism suspensions were adjusted to a final inoculum between 3×10^5 and 7×10^5 colony-forming units (CFU)/mL. Drug dilutions and inocula were made in sterile, cation adjusted Mueller-Hinton Broth (Beckton Dickinson). In wells, an inoculum volume of 100 μL was mixed to 2 μL of DMSO with 2-fold serial dilutions of drug. All inoculated microdilution trays were incubated in ambient air at 35° C. for 18-24 h. Following incubation, the lowest concentration of the drug that prevented visible growth (OD600 nm<0.05) was recorded as the MIC. Performance of the assay was monitored by the use of laboratory quality-control strains and compounds with defined MIC spectrum, in accordance with CLSI guidelines

K. pneumoniae ATCC13883 = test: as above; format: cell-based; details: Klebsiella pneumoniae, 35° C., 18-24 h, read-out: MIC (μg/mL) K. pneumoniae ATCC13883
Procedure: as §2

E. coli ATCC25922 = test: as above; format: cell-based; details: Escherichia coli, 35° C., 18-24 h, read-out: MIC (μg/mL) E. coli ATCC25922
Procedure: as §2

P. aeruginosa 209 PAO1 = test: as above; format: cell-based; details: Pseudomonas aeruginosa, 35° C., 18-24 h, read-out: MIC (μg/mL) P. aeruginosa 209 PAO1
Procedure: as §2

K. pneumoniae LpxC = K. pneumoniae LpxC (Klebsiella pneumoniae subsp. pneumoniae, UniProt A6T4N9); test: LpxC Binding Assay (Rapid Fire MS assay); format: biochemical
K. pneumoniae LpxC, sequence (A6T4N9 whole entry): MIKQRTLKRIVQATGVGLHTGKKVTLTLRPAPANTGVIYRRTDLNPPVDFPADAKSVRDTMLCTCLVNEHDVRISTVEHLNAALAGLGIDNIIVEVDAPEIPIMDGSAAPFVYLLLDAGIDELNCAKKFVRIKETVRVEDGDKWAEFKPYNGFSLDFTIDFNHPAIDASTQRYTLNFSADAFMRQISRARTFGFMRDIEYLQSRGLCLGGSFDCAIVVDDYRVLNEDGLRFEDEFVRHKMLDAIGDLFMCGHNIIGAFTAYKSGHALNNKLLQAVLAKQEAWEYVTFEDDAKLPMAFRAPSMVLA

Question: With `COCC(N)COc1ccc(-c2ccc(C#C[C@@H](CO)n3ccnc3[C@H](C)O)cc2)cc1` (mixture of isomers) [Compound 3, (2S)-4-(4′-(2-amino-3-methoxypropoxy)-[1,1′-biphenyl]-4-yl)-2-(2-((S)-1-hydroxyethyl)-1H-imidazol-1-yl)but-3-yn-1-ol] as the compound, how does the IC50 (P. aeruginosa LpxC) read?
Answer: Its IC50 is 15.1 nM.

Question: And the IC50 (E. coli LpxC)?
Answer: Its IC50 is 1.5 nM.

Question: What about the MIC (P. aeruginosa ATCC27835) of the same compound?
Answer: Its MIC is 2 µg/mL (≈ 4.59 µM).

Question: And the MIC (K. pneumoniae ATCC13883)?
Answer: The MIC was 4 µg/mL (≈ 9.18 µM).

Question: What about the MIC (E. coli ATCC25922) of the same compound?
Answer: Its MIC is 2 µg/mL (≈ 4.59 µM).

Question: What about the MIC (P. aeruginosa 209 PAO1) of the same compound?
Answer: Its MIC is 1 µg/mL (≈ 2.3 µM).

Question: What about the IC50 (K. pneumoniae LpxC) of the same compound?
Answer: Its IC50 is 2.2 nM.

Question: With `C[C@H](O)c1nccn1[C@@H](C#Cc1ccc(-c2ccc(O[C@H]3COC[C@@H]3O)cc2)cc1)CN` (relative stereo) [Compound 24, (trans)-4-((4′-((S)-4-amino-3-(2-((S)-1-hydroxyethyl)-1H-imidazol-1-yl)but-1-yn-1-yl)-[1,1′-biphenyl]-4-yl)oxy)tetrahydrofuran-3-ol] as the compound, how does the IC50 (P. aeruginosa LpxC) read?
Answer: Its IC50 is 42.9 nM.

Question: And the IC50 (E. coli LpxC)?
Answer: Its IC50 is 1.9 nM.

Question: And the MIC (P. aeruginosa ATCC27835)?
Answer: The MIC was 4 µg/mL (≈ 9.23 µM).

Question: What about the MIC (K. pneumoniae ATCC13883) of the same compound?
Answer: The MIC was 4 µg/mL (≈ 9.23 µM).

Question: What about the MIC (P. aeruginosa 209 PAO1) of the same compound?
Answer: Its MIC is 2 µg/mL (≈ 4.61 µM).

Question: And the IC50 (K. pneumoniae LpxC)?
Answer: Its IC50 is 4.1 nM.

Question: `C[C@H](O)c1nccn1[C@@H](C#Cc1ccc(-c2ccc(OCCC(O)CO)cc2)cc1)CO` (mixture of isomers) [Compound 17, 4-((4′-((S)-4-hydroxy-3-(2-((S)-1-hydroxyethyl)-1H-imidazol-1-yl)but-1-yn-1-yl)-[1,1′-biphenyl]-4-yl)oxy)butane-1,2-diol] was tested. Which IC50 (P. aeruginosa LpxC) did it give?
Answer: The IC50 was 6.6 nM.

Question: And the IC50 (E. coli LpxC)?
Answer: The IC50 was 0.5 nM.

Question: What about the MIC (P. aeruginosa ATCC27835) of the same compound?
Answer: The MIC was 2 µg/mL (≈ 4.58 µM).

Question: What about the MIC (K. pneumoniae ATCC13883) of the same compound?
Answer: Its MIC is 2 µg/mL (≈ 4.58 µM).

Question: What about the MIC (P. aeruginosa 209 PAO1) of the same compound?
Answer: The MIC was 1 µg/mL (≈ 2.29 µM).

Question: What about the IC50 (K. pneumoniae LpxC) of the same compound?
Answer: Its IC50 is 1 nM.

Question: How did the IC50 (P. aeruginosa LpxC) turn out when `C[C@H](O)c1nccn1[C@@H](C#Cc1ccc(-c2ccc(OCC(O)CCCO)cc2)cc1)CO` (stereo partly drawn) [Compound 23, 5-((4′-((S)-4-hydroxy-3-(2-((S)-1-hydroxyethyl)-1H-imidazol-1-yl)but-1-yn-1-yl)-[1,1′-biphenyl]-4-yl)oxy)pentane-1,4-diol] was run?
Answer: The IC50 was 7.8 nM.

Question: What about the IC50 (E. coli LpxC) of the same compound?
Answer: Its IC50 is 0.5 nM.

Question: And the MIC (P. aeruginosa ATCC27835)?
Answer: The MIC was 2 µg/mL (≈ 4.44 µM).

Question: What about the MIC (K. pneumoniae ATCC13883) of the same compound?
Answer: The MIC was 2 µg/mL (≈ 4.44 µM).

Question: What about the MIC (P. aeruginosa 209 PAO1) of the same compound?
Answer: Its MIC is 2 µg/mL (≈ 4.44 µM).

Question: What about the IC50 (K. pneumoniae LpxC) of the same compound?
Answer: Its IC50 is 1 nM.

Question: Which IC50 (P. aeruginosa LpxC) does the source give for `C[C@H](O)c1nccn1[C@@H](C#Cc1ccc(-c2ccc(O[C@H]3COC[C@@H]3O)cc2)cc1)CO` (relative stereo) [Compound 10, (trans)-4-((4′-((S)-4-hydroxy-3-(2-((S)-1-hydroxyethyl)-1H-imidazol-1-yl)but-1-yn-1-yl)-[1,1′-biphenyl]-4-yl)oxy)tetrahydrofuran-3-ol] here?
Answer: The IC50 was 5.1 nM.

Question: What about the IC50 (E. coli LpxC) of the same compound?
Answer: Its IC50 is less than 0.5 nM.

Question: What about the MIC (P. aeruginosa ATCC27835) of the same compound?
Answer: Its MIC is 2 µg/mL (≈ 4.6 µM).

Question: And the MIC (K. pneumoniae ATCC13883)?
Answer: The MIC was 2 µg/mL (≈ 4.6 µM).

Question: And the MIC (P. aeruginosa 209 PAO1)?
Answer: The MIC was 1 µg/mL (≈ 2.3 µM).

Question: And the IC50 (K. pneumoniae LpxC)?
Answer: Its IC50 is 0.9 nM.

Question: For `C[C@H](O)c1nccn1[C@@H](C#Cc1ccc(-c2ccc(O[C@@H]3C[C@H]3NCCF)cc2)cc1)CO` (racemic) [Compound 12, (S)-4-(4′-((trans)-2-((2-fluoroethyl)amino)cyclopropoxy)-[1,1′-biphenyl]-4-yl)-2-(2-((S)-1-hydroxyethyl)-1H-imidazol-1-yl)but-3-yn-1-ol], which IC50 (P. aeruginosa LpxC) is on record?
Answer: The IC50 was 6 nM.

Question: What about the IC50 (E. coli LpxC) of the same compound?
Answer: The IC50 was less than 0.5 nM.

Question: What about the MIC (P. aeruginosa ATCC27835) of the same compound?
Answer: Its MIC is 4 µg/mL (≈ 8.9 µM).

Question: And the MIC (K. pneumoniae ATCC13883)?
Answer: The MIC was 2 µg/mL (≈ 4.45 µM).

Question: And the MIC (P. aeruginosa 209 PAO1)?
Answer: Its MIC is 2 µg/mL (≈ 4.45 µM).

Question: And the IC50 (K. pneumoniae LpxC)?
Answer: The IC50 was 1.1 nM.

Question: `C[C@H](O)c1nccn1CC#Cc1ccc(-c2ccc(C3CC(NCCO)C3)cc2)cc1` (stereo partly drawn) [Compound 19, (S)-2-((3-(4′-(3-(2-(1-hydroxyethyl)-1H-imidazol-1-yl)prop-1-yn-1-yl)-[1,1′-biphenyl]-4-yl)cyclobutyl)amino)ethan-1-ol] was tested. Which IC50 (P. aeruginosa LpxC) did it give?
Answer: The IC50 was 15.9 nM.

Question: And the IC50 (E. coli LpxC)?
Answer: Its IC50 is less than 0.5 nM.

Question: And the MIC (P. aeruginosa ATCC27835)?
Answer: The MIC was 4 µg/mL (≈ 9.63 µM).

Question: What about the MIC (K. pneumoniae ATCC13883) of the same compound?
Answer: The MIC was 1 µg/mL (≈ 2.41 µM).

Question: What about the MIC (P. aeruginosa 209 PAO1) of the same compound?
Answer: Its MIC is 4 µg/mL (≈ 9.63 µM).

Question: And the IC50 (K. pneumoniae LpxC)?
Answer: Its IC50 is 0.7 nM.

From patent publication US20240166609A1, “ANTIBACTERIAL COMPOUNDS” (BLACKSMITH MEDICINES, INC., priority 2021, published 2024)
